Experimental data as given in patent publication US8354441B2, “Oxazoline derivatives” (Hoffmann-La Roche Inc., priority 2009, dated 2013).

Experiments:
[1] = target: T1, mouse TAAR1 (Mus musculus, UniProt Q923Y8); assay: TAAR1 radioligand binding with [3H]-rac-2-(1,2,3,4-tetrahydro-1-naphthyl)-2-imidazoline, membranes of stably transfected HEK293 cells; details: first value of the cell, read-out: Ki (μM) mouse/rat: mouse
T1 construct: expressed in transfected cells; host or cells: HEK293 (ATCC # CRL-1573), stably transfected with pIRESneo2 expression plasmid
In short: (§1)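 Competition binding: competitors spanning 10 pM–30 μM displace 60 nM [3H]-rac-2-(1,2,3,4-tetrahydro-1-naphthyl)-2-imidazoline from stably transfected HEK293 membranes (mouse or rat receptor), 30 min, 4 °C, pH 7.0 buffer with Mg2+/Ca2+. Bound label counted after GF/C filtration; 10 μM unlabelled ligand defines non-specific binding.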

[2] = target: T2, rat TAAR1 (Rattus norvegicus, UniProt Q923Y9); assay: as above; details: second value of the cell, read-out: Ki (μM) mouse/rat: rat
T2 construct: expressed in transfected cells; host or cells: HEK293 (ATCC # CRL-1573), stably transfected with pIRESneo2 expression plasmid
In short: as §1

T2 sequence (Q923Y9 whole entry): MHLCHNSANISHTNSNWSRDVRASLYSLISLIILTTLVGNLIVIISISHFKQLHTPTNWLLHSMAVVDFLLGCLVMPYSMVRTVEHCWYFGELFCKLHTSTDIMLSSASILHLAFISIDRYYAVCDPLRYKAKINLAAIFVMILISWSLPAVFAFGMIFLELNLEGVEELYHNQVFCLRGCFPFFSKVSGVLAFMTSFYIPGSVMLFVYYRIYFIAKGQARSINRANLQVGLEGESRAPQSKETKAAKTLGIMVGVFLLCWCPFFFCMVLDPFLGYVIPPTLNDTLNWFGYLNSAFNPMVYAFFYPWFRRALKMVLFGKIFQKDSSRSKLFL
T1 sequence (Q923Y8 whole entry): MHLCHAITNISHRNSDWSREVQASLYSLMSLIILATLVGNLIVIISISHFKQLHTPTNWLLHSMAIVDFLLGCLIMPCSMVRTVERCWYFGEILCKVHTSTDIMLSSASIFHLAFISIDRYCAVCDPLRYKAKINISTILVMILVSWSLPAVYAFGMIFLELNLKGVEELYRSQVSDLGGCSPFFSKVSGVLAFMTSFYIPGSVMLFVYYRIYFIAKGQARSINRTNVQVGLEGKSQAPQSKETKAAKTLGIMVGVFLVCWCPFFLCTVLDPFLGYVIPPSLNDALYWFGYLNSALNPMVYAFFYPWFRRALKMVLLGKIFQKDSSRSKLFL

Structure (SMILES) | Ki [1] | Ki [2]
NC1=N[C@@H](CCc2ccc(NC(=O)c3ccc(F)cc3)cc2)CO1 [Example 16, N-{4-[2-((S)-2-Amino-4,5-dihydro-oxazol-4-yl)-ethyl]-phenyl}-4-fluoro-benzamide] | 0.0008 µM | 0.0003 µM
NC1=N[C@@H](CCc2ccc(NC(=O)c3ncc(Cl)cn3)cc2)CO1 [Example 34, 5-Chloro-pyrimidine-2-carboxylic acid {4-[2-((S)-2-amino-4,5-dihydro-oxazol-4-yl)-ethyl]-phenyl}-amide] | 0.0067 µM | 0.0035 µM
NC1=N[C@@H](CCc2ccc(NC(=O)Cc3ccc(Cl)cc3)cc2)CO1 [Example 70, N-{4-[2-((S)-2-Amino-4,5-dihydro-oxazol-4-yl)-ethyl]-phenyl}-2-(4-chloro-phenyl)-acetamide] | 0.001 µM | 0.001 µM
CCc1nc(C(=O)Nc2ccc(CC[C@H]3COC(N)=N3)cc2)co1 [Example 217, (S)-N-(4-(2-(2-Amino-4,5-dihydrooxazol-4-yl)ethyl)phenyl)-2-ethyloxazole-4-carboxamide] | 0.0051 µM | 0.0025 µM
COc1ncccc1C(=O)Nc1ccc(CC[C@H]2COC(N)=N2)cc1 [Example 115, N-{4-[2-((S)-2-Amino-4,5-dihydro-oxazol-4-yl)-ethyl]-phenyl}-2-methoxy-nicotinamide] | 0.0029 µM | 0.0024 µM
NC1=N[C@@H](CCc2ccc(NC(=O)c3cc(Cl)nc(Cl)c3)cc2)CO1 [Example 175, (S)-N-(4-(2-(2-Amino-4,5-dihydrooxazol-4-yl)ethyl)phenyl)-2,6-dichloroisonicotinamide] | 0.0008 µM | 0.0009 µM
CCOc1cnc(C(=O)Nc2ccc(CC[C@H]3COC(N)=N3)cc2)cn1 [Example 161, (S)-N-(4-(2-(2-Amino-4,5-dihydrooxazol-4-yl)ethyl)phenyl)-5-ethoxypyrazine-2-carboxamide] | 0.001 µM | 0.0012 µM
NC1=N[C@@H](CCc2ccc(NC(=O)c3ncc(F)cc3F)cc2)CO1 [Example 87, 3,5-Difluoro-pyridine-2-carboxylic acid {4-[2-((S)-2-amino-4,5-dihydro-oxazol-4-yl)-ethyl]-phenyl}-amide] | 0.0057 µM | 0.0018 µM
NC1=N[C@@H](CCc2ccc(NC(=O)c3ccc(F)nc3)cc2)CO1 [Example 121, (S)-N-(4-(2-(2-Amino-4,5-dihydrooxazol-4-yl)ethyl)phenyl)-6-fluoronicotinamide] | 0.0032 µM | 0.0046 µM
Cn1cc(Cl)c(C(=O)Nc2ccc(CC[C@H]3COC(N)=N3)cc2)n1 [Example 194, (S)-N-(4-(2-(2-Amino-4,5-dihydrooxazol-4-yl)ethyl)phenyl)-4-chloro-1-methyl-1H-pyrazole-3-carboxamide] | 0.0091 µM | 0.0035 µM
C#Cc1ccc(C(=O)Nc2ccc(CC[C@H]3COC(N)=N3)cc2)cc1 [Example 62, N-{4-[2-((S)-2-Amino-4,5-dihydro-oxazol-4-yl)-ethyl]-phenyl}-4-ethynyl-benzamide] | 0.0003 µM | 0.0005 µM
NC1=N[C@@H](CCc2ccc(NC(=O)c3ccc(F)cn3)cc2)CO1 [Example 96, (S)-N-(4-(2-(2-amino-4,5-dihydrooxazol-4-yl)ethyl)phenyl)-5-fluoropicolinamide] | 0.001 µM | 0.0006 µM
COc1ccc(C(=O)Nc2ccc(CC[C@H]3COC(N)=N3)cc2)nc1 [Example 117, (S)-N-(4-(2-(2-Amino-4,5-dihydrooxazol-4-yl)ethyl)phenyl)-5-methoxypicolinamide] | 0.002 µM | 0.0008 µM
COc1ncc(C(=O)Nc2ccc(CC[C@H]3COC(N)=N3)cc2)cn1 [Example 83, 2-Methoxy-pyrimidine-5-carboxylic acid {4-[2-((S)-2-amino-4,5-dihydro-oxazol-4-yl)-ethyl]-phenyl}-amide] | 0.0074 µM | 0.0052 µM
NC1=N[C@@H](CCc2ccc(NC(=O)c3ccc(C(F)(F)F)nc3)cc2)CO1 [Example 55, N-{4-[2-((S)-2-Amino-4,5-dihydro-oxazol-4-yl)-ethyl]-phenyl}-6-trifluoromethyl-nicotinamide] | 0.0025 µM | 0.003 µM
NC1=N[C@@H](CCc2ccc(NC(=O)c3cc(Cl)ccn3)cc2)CO1 [Example 90, 4-Chloro-pyridine-2-carboxylic acid {4-[2-((S)-2-amino-4,5-dihydro-oxazol-4-yl)-ethyl]-phenyl}-amide] | 0.0007 µM | 0.0003 µM
NC1=N[C@@H](CCc2ccc(NC(=O)c3cc(Cl)cc(Cl)n3)cc2)CO1 [Example 158, (S)-N-(4-(2-(2-Amino-4,5-dihydrooxazol-4-yl)ethyl)phenyl)-4,6-dichloropicolinamide] | 0.0006 µM | 0.0006 µM

Structure (SMILES) | Ki [1] | Ki [2]
COc1cc(Cl)ccc1C(=O)Nc1ccc(CC[C@H]2COC(N)=N2)cc1 [Example 138, (S)-N-(4-(2-(2-Amino-4,5-dihydrooxazol-4-yl)ethyl)phenyl)-4-chloro-2-methoxybenzamide] | 0.0002 µM | 0.0002 µM
NC1=N[C@@H](CCc2ccc(NC(=O)Nc3ccc(Cl)c(Cl)c3)cc2)CO1 [Example 14, 1-{4-[2-((S)-2-Amino-4,5-dihydro-oxazol-4-yl)-ethyl]-phenyl}-3-(3,4-dichloro-phenyl)-urea] | 0.0001 µM | 0.0001 µM
NC1=N[C@@H](C[C@@H](Oc2ccc(NC(=O)c3ccc(Cl)cc3)cc2)C(F)(F)F)CO1 [Example 150, N-{4-[(R)-1-((S)-2-Amino-4,5-dihydro-oxazol-4-ylmethyl)-2,2,2-trifluoro-ethoxy]-phenyl}-4-chloro-benzamide] | 0.0004 µM | 0.0005 µM
NC1=N[C@@H](CCc2ccc(NC(=O)c3cncc(Cl)n3)cc2)CO1 [Example 160, (S)-N-(4-(2-(2-Amino-4,5-dihydrooxazol-4-yl)ethyl)phenyl)-6-chloropyrazine-2-carboxamide] | 0.0047 µM | 0.0018 µM
NC1=N[C@@H](CCc2ccc(NC(=O)c3ncc(C(F)(F)F)cc3Cl)cc2)CO1 [Example 101, 3-Chloro-5-trifluoromethyl-pyridine-2-carboxylic acid {4-[2-((S)-2-amino-4,5-dihydro-oxazol-4-yl)-ethyl]-phenyl}-amide] | 0.0007 µM | 0.0021 µM
NC1=N[C@@H](CCc2ccc(NC(=O)c3cnc(N4CCCCC4)nc3)cc2)CO1 [Example 123, (S)-N-(4-(2-(2-Amino-4,5-dihydrooxazol-4-yl)ethyl)phenyl)-2-(piperidin-1-yl)pyrimidine-5-carboxamide] | 0.0007 µM | 0.0017 µM
NC1=N[C@@H](CCc2ccc(NC(=O)c3ccc4ccccc4n3)cc2)CO1 [Example 91, Quinoline-2-carboxylic acid {4-[2-((S)-2-amino-4,5-dihydro-oxazol-4-yl)-ethyl]-phenyl}-amide] | 0.0005 µM | 0.0002 µM
Cc1ccc(C(=O)Nc2ccc(CC[C@H]3COC(N)=N3)cc2)cn1 [Example 98, N-{4-[2-((S)-2-Amino-4,5-dihydro-oxazol-4-yl)-ethyl]-phenyl}-6-methyl-nicotinamide] | 0.0068 µM | 0.0019 µM
COc1cc(C(=O)Nc2ccc(CC[C@H]3COC(N)=N3)cc2)nc(OC)n1 [Example 190, (S)-N-(4-(2-(2-Amino-4,5-dihydrooxazol-4-yl)ethyl)phenyl)-2,6-dimethoxypyrimidine-4-carboxamide] | 0.0041 µM | 0.004 µM
NC1=N[C@@H](CCc2ccc(N3CCN(c4ccc(F)cc4)C3=O)cc2)CO1 [Example 56, 1-{4-[2-((S)-2-Amino-4,5-dihydro-oxazol-4-yl)-ethyl]-phenyl}-3-(4-fluoro-phenyl)-imidazolidin-2-one] | 0.0094 µM | 0.0009 µM
NC1=N[C@@H](CCc2ccc(NC(=O)c3cnc(Cl)c(Cl)c3)cc2)CO1 [Example 109, N-{4-[2-((S)-2-Amino-4,5-dihydro-oxazol-4-yl)-ethyl]-phenyl}-5,6-dichloro-nicotinamide] | 0.0006 µM | 0.0016 µM
Cc1ocnc1C(=O)Nc1ccc(CC[C@H]2COC(N)=N2)cc1 [Example 191, (S)-N-(4-(2-(2-Amino-4,5-dihydrooxazol-4-yl)ethyl)phenyl)-5-methyloxazole-4-carboxamide] | 0.0042 µM | 0.0021 µM
NC1=N[C@@H](CCc2ccc(NC(=O)Nc3cccc(Cl)c3)cc2)CO1 [Example 95, 1-{4-[2-((S)-2-Amino-4,5-dihydro-oxazol-4-yl)-ethyl]-phenyl}-3-(3-chloro-phenyl)-urea] | 0.0001 µM | 0.0001 µM
NC1=N[C@@H](CCc2ccc(NC(=O)c3ccc(Cl)cc3Cl)cc2)CO1 [Example 137, (S)-N-(4-(2-(2-Amino-4,5-dihydrooxazol-4-yl)ethyl)phenyl)-2,4-dichlorobenzamide] | 0.0003 µM | 0.0006 µM
NC1=N[C@@H](CCc2ccc(NC(=O)c3ccc(C(F)(F)F)cc3)cc2)CO1 [Example 17, N-{4-[2-((S)-2-Amino-4,5-dihydro-oxazol-4-yl)-ethyl]-phenyl}-4-trifluoromethyl-benzamide] | 0.0002 µM | 0.0004 µM
NC1=N[C@@H](CCc2ccc(NC(=O)c3ccc(Cl)nn3)cc2)CO1 [Example 122, (S)-N-(4-(2-(2-Amino-4,5-dihydrooxazol-4-yl)ethyl)phenyl)-6-chloropyridazine-3-carboxamide] | 0.0043 µM | 0.0043 µM
NC1=N[C@@H](CCc2ccc(NC(=O)c3ccn(C(F)F)n3)cc2)CO1 [Example 195, (S)-N-(4-(2-(2-Amino-4,5-dihydrooxazol-4-yl)ethyl)phenyl)-1-(difluoromethyl)-1H-pyrazole-3-carboxamide] | 0.0037 µM | 0.0023 µM
